Reference: patent US20240197869A1, “HYPERACTIVATORS OF MAMMALIAN DENDRITIC CELLS” (Corner Therapeutics, Inc., priority 2021, published 2024)

How the values were obtained:
[1] = system: murine, FLT3L-differentiated DC; assay: Cytokine secretion by murine FLT3L-differentiated BMDC (ELISA); type: cell-based, mouse
Protocol: Murine FLT3L-differentiated, bone marrow-derived DC (BMDC) generation. Leg femur and tibia were removed from mice, cut with scissors and flushed into sterile tubes. Bone marrow suspension was treated with ACK for 1 minute, then passed through a 40 um cell strainer. Cells were counted and resuspended in media consisting of complete IMDM containing 10% FBS, penicillin and streptomycin, and supplements of L-glutamine and sodium pyruvate (I10). Cells were then plated at 5E6 bone marrow cells per well in a P12 plate. Recombinant mouse FLT3L (Miltenyi) was added to cultures at 200 ng/mL. Differentiated cells were used for subsequent assays on day 9. The efficiency of differentiation was monitored by flow cytometry using BD Symphony A3, and CD11c+MHC-II+ cells were routinely above 80% of living cells. For each experiment, five mice were used to collect BM and to generate DCs.
Murine FLT3L-differentiated BMDC (FLT3L-BMDC) hyperactivation. BMDCs were washed with PBS and re-plated in FLT3L-containing 110 at a concentration of 1.5×10^5 cells/well. Stimuli were added to cultures at indicated concentrations for a final volume of 200 uL/well. Twenty-four hours post-stimulation, cell culture supernatant was collected after centrifugation and stored at −20° C. to measure cytokine secretion. IL-1b, IL-6, IL-12p40, and TNF-alpha ELISA were performed using eBioscience Ready-SET-Go! (now ThermoFisher) ELISA kits according to the manufacturer's protocols. Cell viability was measured using Promega's Cell Titer-Glo reagent kits.

[2] = system: human monocyte-derived dendritic cells (moDCs); assay: Lipid titration: viability of human moDCs (CellTiter-Glo)
Protocol: Lipid Titration. After 6 days of differentiation into moDC, cells were collected and counted. Cells were replated at 100,000 cells/well in R10 media in 96-well flat bottom tissue culture-treated plates. LPS, serotype 055:B5 (Enzo Life Sciences) was added to a final concentration of 1 μg/mL in each well. After the addition of LPS, lipids were prepared. […] After two days of culture, cell cultures were used for endpoint analyses.
Endpoint Analyses. After culturing moDCs with PAMPs and DAMPs for two days, supernatant and cell samples were collected for analysis. Cells in culture were pelleted by centrifugation at 400×g for 5 min.
Quantification of Cell Viability. Cell viability was assessed by quantifying the presence of ATP as an indicator of metabolically active cells using the CellTiter-Glo Luminescent Cell Viability Assay (Promega). Metabolic activity was assessed following manufacturer's instructions. The CellTiter-Glo reagent was mixed with the cell pellets and remaining supernatant, and transferred to a white, opaque 96-well plate. Luminescence was measured on all wavelengths on a Spectramax iD3 plate reader (Molecular Devices) using an integration time of 500 ms. Percent viability was calculated relative to the control condition of moDCs treated with LPS.
Statistical Analyses. […] For each tested condition, cells from each donor were plated to be tested in triplicate.

[3] = Solubility of 22:0 Lyso PC (observation); type: physicochemical
human naïve CD4+ T cells = assay: Mixed lymphocyte reaction: polarization of naïve CD4 T cells (flow cytometry); type: cell-based
Protocol: Mixed lymphocyte reaction. Human monocytes were isolated from leukopheresis products using Miltenyi StraightFrom LeukoPak CD14 microbeads as directed by manufacturer. To isolate naïve CD4 T cells, whole blood was diluted with an equal volume of PBS. Diluted blood was layered on top of Ficoll-Paque PLUS solution and spun at 1000 rcf for 20 minutes at room temperature with no brakes. Buffy coat layer was collected, washed, and counted. Miltenyi human naïve CD4 T cell microbead isolation kits were used to isolate cells of interest from the PBMC according to manufacturer's instructions. Collected cells were cryogenically stored in 90% FBS and 10% DMSO.
Monocytes were differentiated into moDC. moDC were counted and plated in U-bottom plates at 2×10^4 cells/well and treated with hyperactivating stimuli or control conditions. After one day of culture, 1×10^5 cells/well naïve CD4 T cells from a different (allogeneic) human donor were thawed and added to the cultures with 100 ng/mL IL-2. Cells were cocultured for 5 days with an IL-2 feed on the third day of coculture. After 5 days, cells were reactivated for four hours using Leukocyte Activation Cocktail with BD GolgiPlug (BD Biosciences). Cells were stained to determine the resulting polarization of activated T cells via flow cytometry. Intracellular staining targets required the use of BD Biosciences Transcription Factor Buffer set to fix and permeabilize cells prior to the intracellular staining step.
Ten moDC donor samples were tested in MLR assay. Staining results were analyzed using FlowJo software, and consistent gating strategies were applied to all samples. Frequency of activated cells was graphed as a percentage of CD4 T cells in each sample. Paired t-tests were used to determine statistical significance.

human PBMCs = assay: Viability of human PBMCs (CellTiter-Glo); type: cell-based; settings: 2 days post-activation; lipids combined with R848
Protocol: Isolation of PBMCs from Whole Blood. PBMCs were isolated from whole blood using density gradient centrifugation with Ficoll-Paque PLUS (Cytivia). Whole blood was diluted 1:1 with PBS, layered on top of Ficoll-Paque PLUS and centrifuged at 1000×g for 30 minutes at room temperature. PBMCs were collected, washed twice in PBS, and incubated with Ack lysis buffer (Lonza) to remove any remaining red blood cells.
Cell Culture and Stimulation. […] Cells were plated at 1×10^5 (canine cells) or 1×10^6 (human cells) per well in 96-well flat bottom tissue culture plates. Lyophilized Vaccigrade R848 (Invivogen) was reconstituted and diluted according to manufacturer's recommendations and added to cells at a final concentration of 1 μg/mL.
Quantification of Cell Viability.

[4] = system: human monocyte-derived dendritic cells (moDCs); assay: Lipid titration: IL-1β secretion by LPS-activated human moDCs; type: cell-based
[5] = R848 + 41 uM lipid in PBS or KP407, 24 h
[6] = moDC treated with R848 + 22:0 LPC

With `CCCCCCCCCCCCCCCCCCCCCC(=O)OC[C@@H](O)COP(=O)([O-])OCC[N+](C)(C)C` [22:0 LYSO PC, 1-behenoyl-2-hydroxy-sn-glycero-3-phosphocholine] the “IL-1beta secretion (in words)” value ([1]; 22:0 Lyso PC without R848) was “failed to induce IL-1beta secretion”, the “IL-6 secretion (in words)” value [1, 5] was “high TNF-alpha and IL-6 secretion” and the “TNF-alpha secretion (in words)” value [1, 5] was “high TNF-alpha and IL-6 secretion”. The “TNF-alpha secretion (in words)” value ([1]; R848 + lipid in KP407) was “small boost in TNF-alpha secretion”, the “lipid concentration superior in supporting IL-1beta secretion while retaining cell viability” value ([1]; formulated in KP407 + R848) was 41 µM and the “IL-1beta secretion (in words)” value ([1]; lipid formulated in 5% KP407 + R848 1 ug/mL, 24 h) was “induced IL-1beta secretion in a dose dependent manner”. For the same compound, the “IL-1beta secretion (in words)” value ([1]; lipid resuspended in PBS, different concentrations, + R848 1 ug/mL, 24 h) was “unable to induce IL-1beta secretion”, the “moDC viability (in words)” value ([2]; 10.3 μM lipid + LPS) was “retained high viability” and the “Relative Viability (%) ± SD” value ([2]; 10.3 μM lipid + LPS 1 μg/mL, 2 days, relative to LPS-treated moDCs, Table 1-5) was 89.1%. The “moDC viability (in words)” value ([2]; 20.6 μM lipid + LPS) was “reduced cell viability somewhat”, the “solubility in aqueous solution (in words)” value [3] was “mostly insoluble in aqueous solution” and the “solubility in alcohols (in words)” value ([3]; ethanol or methanol) was “soluble in ethanol or methanol”. For the same compound, the “Th2 polarization (Gata3, IL-4) (in words)” value (human naïve CD4+ T cells; [6]) was “minimal Th2 polarization occurred”, the “Th17 cells (RORg, IL-17) (in words)” value (human naïve CD4+ T cells; [6]) was “not detected” and the “frequency of polyfunctional Th1 cells (IFN-gamma and TNF-alpha) (in words)” value (human naïve CD4+ T cells; moDC treated with R848 + 22:0 LPC vs R848 alone) was “increased in frequency”. The “frequency of Th1 cells (in words)” value (human naïve CD4+ T cells; moDC treated with R848 + 22:0 LPC vs R848 alone, 5 days coculture) was “increased the frequency of Th1 cells”, the “human PBMC viability (in words)” value (human PBMCs) was “remain viable” and the “concentration lower than PGPC for comparable IL-1beta secretion” value ([4]; 10.3 μM 22:0 Lyso PC vs 82.5 μM PGPC, + LPS) was about 8 times. For the same compound, the “IL-1beta secretion (in words)” value ([4]; 10.3 μM lipid + LPS) was “retained its ability to induce IL-1beta secretion”, the IL-1β secretion ([4]; 10.3 μM lipid + LPS 1 μg/mL, 2 days, Table 1-5) was 224.8 pg/mL and the “IL-1beta secretion (in words)” value ([4]; 20.6 μM lipid + LPS) was “increased IL-1beta secretion”. The IL-1β secretion ([4]; 20.6 μM lipid + LPS, human moDCs, 4 donors, mean (SD in wrapped line below)) was 512.6 pg/mL, the “lipid activity index, ranking in words” value ([4]; lipid 1.3-82.5 μM + LPS) was “most potent activity by far” and the “Activity Units (AU) ± SD (lipid activity index)” value ([4]; reciprocal of lowest concentration giving IL-1β two-fold over LPS x highest IL-1β signal, lipid 1.3-82.5 μM + LPS) was 370.00 ± 376.36 AU.
